Assay results: patent publication US20260315487A1, “IKK-ALPHA INHIBITORS” (Cancer Research Technology Limited, priority 2023, published 2026)

How the values were obtained:
IKKα = target: T1, IKKα (Homo sapiens, UniProt O15111); test: in-house DELFIA kinase assay, IKKα; assay type: biochemical
T1 sequence (O15111 1-745): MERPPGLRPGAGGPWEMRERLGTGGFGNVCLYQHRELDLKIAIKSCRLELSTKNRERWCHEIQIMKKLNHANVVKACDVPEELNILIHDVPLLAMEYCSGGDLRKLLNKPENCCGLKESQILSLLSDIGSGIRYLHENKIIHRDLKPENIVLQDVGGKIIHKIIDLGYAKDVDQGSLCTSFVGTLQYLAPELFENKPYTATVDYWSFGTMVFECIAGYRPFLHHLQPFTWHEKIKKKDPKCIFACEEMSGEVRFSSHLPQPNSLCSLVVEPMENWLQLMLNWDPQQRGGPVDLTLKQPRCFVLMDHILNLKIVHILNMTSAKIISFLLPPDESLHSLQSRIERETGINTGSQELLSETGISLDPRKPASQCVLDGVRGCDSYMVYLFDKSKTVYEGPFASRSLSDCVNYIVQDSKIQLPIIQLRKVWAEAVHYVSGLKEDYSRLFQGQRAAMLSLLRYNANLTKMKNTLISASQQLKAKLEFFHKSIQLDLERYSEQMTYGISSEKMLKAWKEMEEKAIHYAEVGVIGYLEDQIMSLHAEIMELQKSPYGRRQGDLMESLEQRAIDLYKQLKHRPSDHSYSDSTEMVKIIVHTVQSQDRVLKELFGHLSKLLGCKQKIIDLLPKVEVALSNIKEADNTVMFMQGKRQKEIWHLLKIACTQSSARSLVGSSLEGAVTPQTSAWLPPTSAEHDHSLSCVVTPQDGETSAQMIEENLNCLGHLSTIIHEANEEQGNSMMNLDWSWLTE
Text: To examine the pyrrolo[2,3 -b]pyridines as an alternative scaffold, we adopted the AIPP core because it had similar dimensions to 1 SU909, with HBD/HBA motifs positioned at the scaffold extremities to interact with both the hinge region and the G-loop wall of IKKα, a rationale we had previously proposed as the basis for imparting selectivity. A preliminary set of AIPP derivatives was designed to explore its utility as an IKK-targeting scaffold, whilst incorporating additional functionality through which to introduce selectivity for the IKKα isoform (2-4 SU1087, SU1266 and SU1253; FIG. 3). This was achieved by initially adopting two different approaches: either appending a hydrophobic moiety to the pyrrolo[2,3 -b]pyridine motif as a fused form to afford the tricyclic derivatives 2 and 3 SU1266 and SU1087, or as a phenyl substituent to introduce flexibility with the central pyrrolo[2,3 -b]pyridine moiety in 4 SU1253 . […] The pyrrolo[2,3 -b]pyridine was bound to the hinge region in the classical HBA/HBD motif with the GK+3 NH and C═O backbone, whilst the aminoindazole projected towards the top of the pocket to interact with the G-loop (FIG. 4A). […] In both isoforms, the 2 -phenyl moiety was oriented out from the hinge towards the exposed solvent area.

IKKβ = target: T2, IKKβ (Homo sapiens, UniProt O14920); test: in-house DELFIA kinase assay, IKKβ; assay type: biochemical
T2 sequence (O14920 1-756): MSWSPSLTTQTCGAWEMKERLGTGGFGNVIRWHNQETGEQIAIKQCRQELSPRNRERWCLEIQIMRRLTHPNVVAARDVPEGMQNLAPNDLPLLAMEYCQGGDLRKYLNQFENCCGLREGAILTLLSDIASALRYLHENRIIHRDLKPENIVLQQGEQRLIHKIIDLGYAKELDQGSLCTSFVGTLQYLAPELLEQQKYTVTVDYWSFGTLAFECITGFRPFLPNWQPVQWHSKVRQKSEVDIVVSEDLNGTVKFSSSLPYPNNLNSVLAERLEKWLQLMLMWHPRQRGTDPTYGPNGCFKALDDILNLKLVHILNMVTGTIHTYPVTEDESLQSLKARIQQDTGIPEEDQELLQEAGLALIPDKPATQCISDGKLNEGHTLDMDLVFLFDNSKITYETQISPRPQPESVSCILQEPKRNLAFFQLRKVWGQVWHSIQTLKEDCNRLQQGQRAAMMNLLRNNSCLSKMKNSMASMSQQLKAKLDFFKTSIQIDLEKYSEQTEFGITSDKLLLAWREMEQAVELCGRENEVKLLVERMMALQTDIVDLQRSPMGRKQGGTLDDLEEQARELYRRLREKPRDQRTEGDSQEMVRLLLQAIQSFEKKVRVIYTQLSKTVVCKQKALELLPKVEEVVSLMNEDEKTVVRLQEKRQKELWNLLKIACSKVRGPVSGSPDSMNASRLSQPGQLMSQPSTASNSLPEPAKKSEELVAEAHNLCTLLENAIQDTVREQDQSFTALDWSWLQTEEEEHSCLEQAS
Text: To examine the pyrrolo[2,3 -b]pyridines as an alternative scaffold, we adopted the AIPP core because it had similar dimensions to 1 SU909, with HBD/HBA motifs positioned at the scaffold extremities to interact with both the hinge region and the G-loop wall of IKKα, a rationale we had previously proposed as the basis for imparting selectivity. A preliminary set of AIPP derivatives was designed to explore its utility as an IKK-targeting scaffold, whilst incorporating additional functionality through which to introduce selectivity for the IKKα isoform (2-4 SU1087, SU1266 and SU1253; FIG. 3). This was achieved by initially adopting two different approaches: either appending a hydrophobic moiety to the pyrrolo[2,3 -b]pyridine motif as a fused form to afford the tricyclic derivatives 2 and 3 SU1266 and SU1087, or as a phenyl substituent to introduce flexibility with the central pyrrolo[2,3 -b]pyridine moiety in 4 SU1253 .

Ki (IKKα)	Ki (IKKβ)	IKKβ inhibition, in words (IKKβ)	SMILES
3 nM	36 nM		CS(=O)(=O)c1cccc(-c2cc3c(-c4ccc5[nH]nc(N)c5c4)ccnc3[nH]2)c1 [5k SU1374, 5-(2-(3-(Methylsulfonyl)phenyl)-1 H-pyrrolo[2,3-b]pyridin-4-yl)-1 H-indazol-3-amine]
24 nM	215 nM		CN1CCN(C(=O)c2cccc(-c3cc4c(-c5ccc6[nH]nc(N)c6c5)ccnc4[nH]3)c2)CC1 [5v SU1312, (3-(4-(3 Amino-1 H-indazol-5-yl)-1 H-pyrrolo[2,3-b]pyridin-2-yl)phenyl)(4-methylpiperazin-1-y)methanone]
3 nM	5 nM		Nc1n[nH]c2ccc(-c3ccnc4[nH]c5ccccc5c34)cc12 [3 SU1087, 5-(9 H-pyrido[2,3-b]indol-4-yl)-1 H-indazol-3-amine]
16 nM	402 nM	lowest activity against IKKβ	Nc1n[nH]c2ccc(-c3ccnc4[nH]c(-c5cccc(OCc6ccccn6)c5)cc34)cc12 [5w SU1324, 5-(2-(3-(pyridin-2-ylmethoxy)phenyl)-1 H-pyrrolo[2,3-b]pyridin-4-yl)-1 H-indazol-3-amine]
29 nM	1220 nM		COCCOCc1cc(OCc2ccccc2)cc(-c2cc3c(-c4ccc5[nH]nc(N)c5c4)ccnc3[nH]2)c1 [6b SU1358, 5-(2-(3-(Benzyloxy)-5-((2-methoxyethoxy)methyl)phenyl)-1 H-pyrrolo[2,3-b]pyridin-4-yl)-1 H-indazol-3-amine]
35 nM	470 nM	lowest activity against IKKβ	Nc1n[nH]c2ccc(-c3ccnc4[nH]c(-c5cccc(CNc6ccccc6)c5)cc34)cc12 [5p SU1549, 5-(2-(3-((Phenylamino)methyl)phenyl)-1 H-pyrrolo[2,3-b]pyridin-4-yl)-1 H-indazol-3-amine]
25 nM	2300 nM		Nc1n[nH]c2ccc(-c3ccnc4[nH]c(-c5cc(OCc6ccccc6)ccn5)cc34)cc12 [6j SU1602, 5-(2-(4-(Benzyloxy)pyridin-2-yl)-1 H-pyrrolo[2,3-b]pyridin-4-yl)-1 H-indazol-3-amine]
57 nM	1060 nM	lowest activity against IKKβ	Nc1n[nH]c2ccc(-c3ccnc4[nH]c(-c5ccccc5OCc5ccccc5)cc34)cc12 [5q SU1353, 5-(2-(2-(Benzyloxy)phenyl)-1 H-pyrrolo[2,3-b]pyridin-4-yl)-1 H-indazol-3-amine]
43 nM	166 nM		COc1ccc(COc2cccc(-c3cc4c(-c5ccc6[nH]nc(N)c6c5)ccnc4[nH]3)c2)cc1 [5z SU1363, 5-(2-(3-((4 -Methoxybenzyl)oxy)phenyl)-1 H-pyrrolo[2,3-b]pyridin-4-yl)-1 H-indazol-3-amine]
8 nM	86 nM		CCOc1ccccc1-c1cc2c(-c3ccc4[nH]nc(N)c4c3)ccnc2[nH]1 [5b SU1368, 5-(2-(2 -Ethoxyphenyl)-1 H-pyrrolo[2,3-b]pyridin-4-yl)-1 H-indazol-3-amine]
6 nM	25 nM	good IKKβ inhibition	COCCC(=O)Nc1cccc(-c2cc3c(-c4ccc5[nH]nc(N)c5c4)ccnc3[nH]2)c1 [5l SU1317, N-(3-(4-(3 -Amino-1 H-indazol-5-yl)-1 H-pyrrolo[2,3-b]pyridin-2-yl)phenyl)-3-methoxypropanamide]
127 nM	3000 nM		Nc1n[nH]c2ccc(-c3ccnc4[nH]c(-c5cc(F)nc(SCc6ccccc6)c5)cc34)cc12 [6i SU1380, 5-(2-(2-(Benzylthio)-6-fluoropyridin-4-yl)-1 H-pyrrolo[2,3-b]pyridin-4-yl)-1 H-indazol-3-amine]
5 nM	26 nM		Nc1n[nH]c2ccc(-c3ccnc4[nH]c(-c5cccc(O)c5)cc34)cc12 [5d SU1348, 3-(4-(3 -Amino-1 H-indazol-5-yl)-1 H-pyrrolo[2,3-b]pyridin-2-yl)phenol]
4 nM	42 nM		Nc1n[nH]c2ccc(-c3ccnc4[nH]c(-c5cc(O)cc(F)c5)cc34)cc12 [5f SU1384, 3-(4-(3 -Amino-1 H-indazol-5-yl)-1 H-pyrrolo[2,3-b]pyridin-2-yl)-5-fluorophenol]
15 nM	107 nM	good IKKβ inhibition	COCCNC(=O)c1cccc(-c2cc3c(-c4ccc5[nH]nc(N)c5c4)ccnc3[nH]2)c1 [5m SU1316, 3-(4-(3 -Amino-1 H-indazol-5-yl)-1 H-pyrrolo[2,3-b]pyridin-2-yl)-N-(2-methoxyethyl)benzamide]
8 nM	168 nM		Nc1n[nH]c2ccc(-c3ccnc4[nH]c(-c5cccc(C(=O)O)c5)cc34)cc12 [5h SU1303, 3-(4-(3 -Amino-1 H-indazol-5-yl)-1 H-pyrrolo[2,3-b]pyridin-2-yl)benzoic acid]
5 nM	159 nM		NC(=O)c1cccc(-c2cc3c(-c4ccc5[nH]nc(N)c5c4)ccnc3[nH]2)c1 [5i SU1294, 3-(4-(3 -Amino-1 H-indazol-5-yl)-1 H-pyrrolo[2,3-b]pyridin-2-yl)benzamide]
10 nM	1050 nM	lowest activity against IKKβ	Cc1ccc(S(=O)(=O)Nc2cccc(-c3cc4c(-c5ccc6[nH]nc(N)c6c5)ccnc4[nH]3)c2)cc1 [5t SU1278, N-(3-(4-(3 -Amino-1 H-indazol-5-yl)-1 H-pyrrolo[2,3-b]pyridin-2-yl)phenyl)-4-methylbenzensulfonamide]
4 nM	42 nM		Nc1n[nH]c2ccc(-c3ccnc4[nH]c(-c5ccccc5O)cc34)cc12 [5a SU1354, 2-(4-(3 -Amino-1 H-indazol-5-yl)-1 H-pyrrolo[2,3-b]pyridin-2-yl)phenol]
9 nM	29 nM	good IKKβ inhibition	Nc1n[nH]c2ccc(-c3ccnc4[nH]c(-c5cccc(OCCN6CCOCC6)c5)cc34)cc12 [5y SU1336, 5-(2-(3-(2 -Morpholinoethoxy)phenyl)-1 H-pyrrolo[2,3-b]pyridin-4-yl)-1 H-indazol-3-amine]
5 nM	1180 nM		Nc1n[nH]c2ccc(-c3ccnc4[nH]c(-c5ccnc(SCc6ccccc6)c5)cc34)cc12 [6h SU1615, 5-(2-(2-(Benzylthio)pyridin-4-yl)-1 H-pyrrolo[2,3-b]pyridin-4-yl)-1 H-indazol-3-amine]
